Measured values published in PubChem BioAssay AID549 (SRMLSC, 2006).
Activity calls are given as the source filed them.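 The calls were made as follows: active = clearly stronger inhibition of phosphomevalonate kinase than of the coupling enzymes alone in a parallel counterscreen; inactive = the rest.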

How the values were obtained:
[1] = target: phosphomevalonate kinase (Streptococcus pneumoniae D39); experiment: S. pneumoniae PMK inhibitor potency, dose response, biochemical, mevalonate pathway, coupling enzyme counter-screen (AID 549); conditions: PK/LDH coupled NADH absorbance 340 nm
[2] = as above; conditions: PK/LDH coupled NADH absorbance 340 nm, measured here: coupling enzymes counter-screen (hexokinase)

## CCOC(=O)C1=C(C)NC(=O)NC1c1c(C)nn(-c2ccccc2)c1Cl (stereo not given)
[1]
  IC50: inactive
[2]
  IC50: 3.54 µM

## CCOC(=O)c1cc2c(=O)n3cccc(C)c3nc2n(CCCOC)c1=NC(=O)c1cccnc1
[1]
  IC50: inactive
[2]
  IC50: 13.6 µM

## O=c1c2ccccc2[se]n1-c1ccccc1
[1]
  IC50: inactive
[2]
  IC50: 73.1 µM

## COc1cccc(OC)c1-c1nn2c(-c3cc(-c4ccccc4)n[nH]3)nnc2s1
[1]
  IC50: inactive
[2]
  IC50: 42.7 µM

## CCOC(=O)N1C(=O)c2cc(OC)ccc2S1(=O)=O
[1]
  IC50: inactive
[2]
  IC50: 18.6 µM

## COc1ccc(C2C3=C(OC(C)=O)c4ccccc4C3=Nc3c2c(=O)n(C)c(=O)n3C)cc1 (stereo not given)
[1]
  outcome: inactive

## Cc1cccc(OCCCc2c(C)n[nH]c2C)c1
[1]
  outcome: inactive

## O=c1oc2ccccc2n1CCn1c2ccccc2c2nc3ccccc3nc21
[1]
  outcome: inactive

## CC(C)C(C(=O)NCC1CCCO1)N(Cc1ccco1)C(=O)CNS(=O)(=O)c1ccc(F)cc1 (stereo not given)
[1]
  outcome: inactive

## COC(=O)C(NC(=O)c1ccccc1)=C1C=C(C)OC(C)=C1
[1]
  outcome: inactive

## COc1cc(OC)nc(NC(=O)NS(=O)(=O)c2ccc(OC(F)(F)F)cc2)n1
[1]
  outcome: inactive

## CCc1nnc(NC(=O)c2cccs2)s1
[1]
  outcome: inactive

## CNC(=O)Cn1ncc2c(C)n(Cc3ccc(C)cc3)c(C)c2c1=O
[1]
  outcome: inactive

## COc1ccc2c(c1OC)C(=O)OC2C1c2c(cc3c(c2OC)OCO3)CCN1C (stereo not given)
[1]
  outcome: inactive

## O=C(CCSc1nc(-c2ccc3c(c2)OCO3)cc(C(F)(F)F)n1)NCc1ccco1
[1]
  outcome: inactive

## O=C(COC(=O)c1ccco1)NC1CCCCC1
[1]
  outcome: inactive

## CS(=O)(=O)N1CCCC(C(=O)NCc2cccs2)C1 (stereo not given)
[1]
  outcome: inactive

## Cc1cc(C)n2c(SCC(=O)N(C)C3CCS(=O)(=O)C3)nnc2n1 (stereo not given)
[1]
  outcome: inactive

## Cc1nc(NC(=O)c2ccco2)sc1C(=O)Nc1ccc(Br)cc1
[1]
  outcome: inactive

## O=C(Cc1coc(-c2ccc(F)cc2)n1)N1CCOCC1
[1]
  outcome: inactive
